Laboratory results reported in PubChem BioAssay AID256 (DTP/NCI, 2004).
Where “and” joins values, the source holds several entries; their conditions need not be identical. Equal entries are not always repeated. Inconclusive results and toxic doses are left out.

Test system: CD2F1 mice, L1210 leukemia ip, survival T/C
Assay: NCI In Vivo Anticancer Drug Screen. Data for tumor model L1210 Leukemia (intraperitoneal) in CD2F1 (CDF1) mice
Conditions: higher = longer survival
Method in brief: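 Each value reflects a quotient of treated over vehicle control outcomes in mice with a transplanted tumor.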

[1] = endpoint: mean survival time, dose: 100.0 mg/kg/injection, schedule: Q01DX001 (ip), vehicle: saline
[2] = endpoint: mean survival time, dose: 200.0 mg/kg/injection, schedule: Q01DX001 (ip), vehicle: saline
[3] = endpoint: mean survival time, dose: 400.0 mg/kg/injection, schedule: Q01DX001 (ip), vehicle: saline
[4] = endpoint: mean survival time, dose: 100.0 mg/kg/injection, schedule: Q01DX009 (ip), vehicle: saline with Tween-80
[5] = endpoint: mean survival time, dose: 200.0 mg/kg/injection, schedule: Q01DX009 (ip), vehicle: saline with Tween-80
[6] = endpoint: mean survival time, dose: 400.0 mg/kg/injection, schedule: Q04DX003 (ip), vehicle: saline with Tween-80
[7] = endpoint: mean survival time, dose: 100.0 mg/kg/injection, schedule: Q04DX003 (ip), vehicle: saline with Tween-80
[8] = endpoint: mean survival time, dose: 200.0 mg/kg/injection, schedule: Q04DX003 (ip), vehicle: saline with Tween-80

## CC(NC(=O)CN)C(=O)O (stereo not drawn)
[1]
  T/C: 100 % of control
[2]
  T/C: 100 % of control
[3]
  T/C: 104 % of control

## O=C1CC2CCCCN2C2=C1CCCC2 (stereo not drawn)
endpoint: mean survival time, dose: 100.0 mg/kg/injection, schedule: Q04DX003 (ip), vehicle: acetone
  T/C: 97 % of control

## CCSC1CCS(=O)(=O)C1 (stereo not drawn)
endpoint: mean survival time, dose: 50.0 mg/kg/injection, schedule: Q01DX009 (ip), vehicle: saline with Tween-80
  T/C: 93 % of control
[4]
  T/C: 93 % of control
[5]
  T/C: 97 % of control

## O=S1(=O)CS(=O)(=O)OCCO1
endpoint: median survival time, dose: 6.25 mg/kg/injection, schedule: Q01DX009 (oral), vehicle: Klucel (hydroxypropylcellulose) (HPC)
  T/C: 112 % of control
endpoint: median survival time, dose: 12.5 mg/kg/injection, schedule: Q01DX001 (oral), vehicle: Klucel (hydroxypropylcellulose) (HPC)
  T/C: 101 % of control
endpoint: median survival time, dose: 22.0 mg/kg/injection, schedule: Q06HX002 (oral), vehicle: Klucel (hydroxypropylcellulose) (HPC)
  T/C: 113 % of control
endpoint: median survival time, dose: 25.0 mg/kg/injection, schedule: Q01DX001 (oral), vehicle: Klucel (hydroxypropylcellulose) (HPC)
  T/C: 112 % of control
endpoint: median survival time, dose: 25.0 mg/kg/injection, schedule: Q01DX009 (oral), vehicle: Klucel (hydroxypropylcellulose) (HPC)
  T/C: 213 % of control
endpoint: median survival time, dose: 33.0 mg/kg/injection, schedule: Q01DX001 (oral), vehicle: Klucel (hydroxypropylcellulose) (HPC)
  T/C: 117 % of control
endpoint: median survival time, dose: 33.0 mg/kg/injection, schedule: Q01DX005 (oral), vehicle: Klucel (hydroxypropylcellulose) (HPC)
  T/C: 103 % of control
endpoint: median survival time, dose: 33.0 mg/kg/injection, schedule: Q06HX002 (oral), vehicle: Klucel (hydroxypropylcellulose) (HPC)
  T/C: 117 % of control
endpoint: median survival time, dose: 49.5 mg/kg/injection, schedule: Q01DX001 (oral), vehicle: Klucel (hydroxypropylcellulose) (HPC)
  T/C: 123 % of control
endpoint: median survival time, dose: 50.0 mg/kg/injection, schedule: Q01DX001 (oral), vehicle: Klucel (hydroxypropylcellulose) (HPC)
  T/C: 119 % of control
endpoint: median survival time, dose: 50.0 mg/kg/injection, schedule: Q01DX009 (oral), vehicle: Klucel (hydroxypropylcellulose) (HPC)
  T/C: 178 % of control and 337 % of control
endpoint: median survival time, dose: 74.2 mg/kg/injection, schedule: Q01DX005 (oral), vehicle: Klucel (hydroxypropylcellulose) (HPC)
  T/C: 185 % of control
endpoint: median survival time, dose: 100.0 mg/kg/injection, schedule: Q01DX001 (oral), vehicle: Klucel (hydroxypropylcellulose) (HPC)
  T/C: 124 % of control
endpoint: median survival time, dose: 100.0 mg/kg/injection, schedule: Q01DX009 (oral), vehicle: Klucel (hydroxypropylcellulose) (HPC)
  T/C: 238 % of control
endpoint: median survival time, dose: 111.2 mg/kg/injection, schedule: Q01DX005 (oral), vehicle: Klucel (hydroxypropylcellulose) (HPC)
  T/C: 212 % of control
endpoint: median survival time, dose: 112.5 mg/kg/injection, schedule: Q01DX001 (oral), vehicle: Klucel (hydroxypropylcellulose) (HPC)
  T/C: 235 % of control
endpoint: median survival time, dose: 166.8 mg/kg/injection, schedule: Q01DX001 (oral), vehicle: Klucel (hydroxypropylcellulose) (HPC)
  T/C: 160 % of control
endpoint: median survival time, dose: 166.8 mg/kg/injection, schedule: Q01DX005 (oral), vehicle: Klucel (hydroxypropylcellulose) (HPC)
  T/C: 272 % of control
endpoint: median survival time, dose: 200.0 mg/kg/injection, schedule: Q01DX001 (oral), vehicle: Klucel (hydroxypropylcellulose) (HPC)
  T/C: 178 % of control
endpoint: median survival time, dose: 250.0 mg/kg/injection, schedule: Q01DX001 (oral), vehicle: Klucel (hydroxypropylcellulose) (HPC)
  T/C: 225 % of control

## CN(/N=N/c1nc[nH]c1C(N)=O)C(C)(C)C
endpoint: mean survival time, dose: 18.75 mg/kg/injection, schedule: Q01DX009 (ip), vehicle: Klucel (hydroxypropylcellulose) (HPC)
  T/C: 96 % of control
endpoint: mean survival time, dose: 37.5 mg/kg/injection, schedule: Q01DX009 (ip), vehicle: Klucel (hydroxypropylcellulose) (HPC)
  T/C: 110 % of control
endpoint: mean survival time, dose: 75.0 mg/kg/injection, schedule: Q01DX009 (ip), vehicle: Klucel (hydroxypropylcellulose) (HPC)
  T/C: 109 % of control
endpoint: mean survival time, dose: 150.0 mg/kg/injection, schedule: Q01DX009 (ip), vehicle: Klucel (hydroxypropylcellulose) (HPC)
  T/C: 109 % of control
endpoint: mean survival time, dose: 300.0 mg/kg/injection, schedule: Q01DX009 (ip), vehicle: Klucel (hydroxypropylcellulose) (HPC)
  T/C: 103 % of control

## N/C(=N/N=C/c1cc(Br)cc(Br)c1O)NO
endpoint: median survival time, dose: 12.5 mg/kg/injection, schedule: Q01DX005 (ip), vehicle: suspension in saline
  T/C: 105 % of control
endpoint: median survival time, dose: 25.0 mg/kg/injection, schedule: Q01DX005 (ip), vehicle: suspension in saline
  T/C: 100 % of control
endpoint: median survival time, dose: 50.0 mg/kg/injection, schedule: Q01DX005 (ip), vehicle: suspension in saline
  T/C: 105 % of control
endpoint: median survival time, dose: 100.0 mg/kg/injection, schedule: Q01DX005 (ip), vehicle: suspension in saline
  T/C: 116 % of control

## CC(=O)Nc1ccc(Br)cn1
endpoint: mean survival time, dose: 100.0 mg/kg/injection, schedule: Q01DX001 (ip), vehicle: saline with Tween-80
  T/C: 97 % of control
endpoint: mean survival time, dose: 200.0 mg/kg/injection, schedule: Q01DX001 (ip), vehicle: saline with Tween-80
  T/C: 105 % of control
endpoint: mean survival time, dose: 400.0 mg/kg/injection, schedule: Q01DX001 (ip), vehicle: saline with Tween-80
  T/C: 102 % of control

## C[C@]1(O)CC[C@H]2[C@@H]3CCC4=CC(=O)CC[C@]4(C)[C@@]3(Cl)[C@@H](O)C[C@@]21C
endpoint: mean survival time, dose: 100.0 mg/kg/injection, schedule: Q04DX003 (ip), vehicle: saline sonified
  T/C: 101 % of control
endpoint: mean survival time, dose: 176.0 mg/kg/injection, schedule: Q04DX003 (ip), vehicle: saline with Tween-80
  T/C: 91 % of control
endpoint: mean survival time, dose: 200.0 mg/kg/injection, schedule: Q04DX003 (ip), vehicle: saline sonified
  T/C: 107 % of control
endpoint: mean survival time, dose: 264.0 mg/kg/injection, schedule: Q04DX003 (ip), vehicle: saline with Tween-80
  T/C: 96 % of control
[6]
  T/C: 94 % of control

## CCOC(OCC)c1nc(N)[nH]c(=O)c1CCCCc1ccccc1
[7]
  T/C: 87 % of control
[8]
  T/C: 87 % of control
[6]
  T/C: 95 % of control

## O=CC(C=O)[N+](=O)[O-]
[1]
  T/C: 103 % of control
[2]
  T/C: 103 % of control
[3]
  T/C: 97 % of control

## CCN1CCCSC1=S
endpoint: mean survival time, dose: 75.0 mg/kg/injection, schedule: Q01DX001 (ip), vehicle: other
  T/C: 98 % of control
endpoint: mean survival time, dose: 150.0 mg/kg/injection, schedule: Q01DX001 (ip), vehicle: other
  T/C: 103 % of control

## CNC(=O)OCC1C(=O)C2C(CN(C)C3=C1C(=O)C(N)=C(C)C3=O)N2C (stereo not drawn)
endpoint: mean survival time, dose: 83.0 mg/kg/injection, schedule: Q01DX001 (ip), vehicle: carboxymethylcellulose (CMC)
  T/C: 106 % of control
endpoint: mean survival time, dose: 125.0 mg/kg/injection, schedule: Q01DX001 (ip), vehicle: carboxymethylcellulose (CMC)
  T/C: 102 % of control
endpoint: mean survival time, dose: 187.0 mg/kg/injection, schedule: Q01DX001 (ip), vehicle: carboxymethylcellulose (CMC)
  T/C: 118 % of control

## CCC1OC2CS(=O)(=O)CC2O1 (stereo not drawn)
[7]
  T/C: 96 % of control
[8]
  T/C: 96 % of control
[6]
  T/C: 96 % of control

## O=[N+]([O-])c1cccc(N=Cc2ccc3c(c2)OCO3)c1
endpoint: mean survival time, dose: 100.0 mg/kg/injection, schedule: Q04DX003 (ip), vehicle: alcohol
  T/C: 105 % of control
endpoint: mean survival time, dose: 200.0 mg/kg/injection, schedule: Q04DX003 (ip), vehicle: alcohol
  T/C: 108 % of control
endpoint: mean survival time, dose: 400.0 mg/kg/injection, schedule: Q04DX003 (ip), vehicle: alcohol
  T/C: 97 % of control

## COC(=O)C1OC(OC(C)=O)C(OC(C)=O)C(OC(C)=O)C1OC(C)=O (stereo not drawn)
endpoint: mean survival time, dose: 75.0 mg/kg/injection, schedule: Q04DX003 (ip), vehicle: saline with Tween-80
  T/C: 98 % of control
endpoint: mean survival time, dose: 150.0 mg/kg/injection, schedule: Q04DX003 (ip), vehicle: saline with Tween-80
  T/C: 98 % of control
endpoint: mean survival time, dose: 300.0 mg/kg/injection, schedule: Q04DX003 (ip), vehicle: saline with Tween-80
  T/C: 92 % of control

## OCC1OC(n2cnc3c(OC4CCCC4)ncnc32)C(O)C1O (stereo not drawn)
[1]
  T/C: 101 % of control
[2]
  T/C: 100 % of control
[3]
  T/C: 100 % of control

## [N-]=C=S.[N-]=C=S.[NH-]N.[NH-]N.[Zn]
endpoint: mean survival time, dose: 25.0 mg/kg/injection, schedule: Q04DX002 (ip), vehicle: saline with Tween-80
  T/C: 96 % of control
endpoint: mean survival time, dose: 50.0 mg/kg/injection, schedule: Q04DX002 (ip), vehicle: saline with Tween-80
  T/C: 100 % of control
endpoint: mean survival time, dose: 100.0 mg/kg/injection, schedule: Q04DX002 (ip), vehicle: saline with Tween-80
  T/C: 102 % of control

## NC(CSC1c2ccccc2-c2ccccc21)C(=O)O (stereo not drawn)
endpoint: mean survival time, dose: 25.0 mg/kg/injection, schedule: Q01DX009 (ip), vehicle: saline
  T/C: 102 % of control
endpoint: mean survival time, dose: 50.0 mg/kg/injection, schedule: Q01DX009 (ip), vehicle: saline
  T/C: 103 % of control
endpoint: mean survival time, dose: 100.0 mg/kg/injection, schedule: Q01DX009 (ip), vehicle: saline
  T/C: 102 % of control
endpoint: mean survival time, dose: 200.0 mg/kg/injection, schedule: Q01DX009 (ip), vehicle: saline
  T/C: 96 % of control
endpoint: mean survival time, dose: 400.0 mg/kg/injection, schedule: Q01DX009 (ip), vehicle: saline
  T/C: 103 % of control

## CC1=COC2CCCCC2O1 (stereo not drawn) (tested in a mixture with another compound)
[4]
  T/C: 95 % of control
[5]
  T/C: 97 % of control
endpoint: mean survival time, dose: 400.0 mg/kg/injection, schedule: Q01DX009 (ip), vehicle: saline with Tween-80
  T/C: 91 % of control
